According to patent publication US11617754B2, “Methods of treating heart failure with preserved ejection fraction” (Poxel SA, priority 2017, dated 2023):

Legend:
Format in all cases: in vivo, rat
Zucker fa/fa rats [1] = assay: Cardiac hemodynamics (left ventricular pressure-volume curves) in Zucker fa/fa rats
Protocol: (§1) Experiments were performed on 12-week-old Male Zucker fa/fa rats or lean control rats purchased from Ch. River (US).
(§2) Animals were kept 2 per cage in standard laboratory conditions, and drugs were administered by gavage (at 9 am and at 6 pm) at the dose of 150 mg/kg bid and administered for 9 or 90 days. Imeglimin's effects on cardiac dysfunction were assessed. • First experiment protocol:
(§3) The Zucker fa/fa animals were randomized on their body weight in two groups and three groups were then constituted: • Lean rats (Treated with vehicle n=12) • Control Zucker fa/fa rats (Treated with vehicle n=18) • Imeglimin treated Zucker fa/fa rats at the dose of 150 mg/kg bid (n=18)
After a short-term treatment (9 days), cardiac function (echocardiography and MRI) and cardiac hemodynamics were assessed (1 h after the last treatment) on all rats. • Second experiment protocol:
(§4) The Zucker fa/fa animals were randomized on their body weight in two groups and three groups were then constituted: • Lean rats (Treated with vehicle n=18) • Control Zucker fa/fa rats (Treated with vehicle n=24) • Imeglimin treated Zucker fa/fa rats at the dose of 150 mg/kg bid (n=24)
(§5) After a long-term treatment (90 days), cardiac function (echocardiography and MRI) and cardiac hemodynamics were assessed (1 h after the last treatment) on all rats.
The imeglimin suspension was prepared at the concentrations used in the study (150 mg/kg) and homogenized in 10 mL of the Methylcellulose solution. The drug suspension was prepared on the day of administration.
Left ventricle function was assessed using left pressure volume curves after 9 or 90 days of treatment, as previously described (Fang Y et al, J Mol Cell Cardiol., 2011, 51:168-176; Fang Y H et al, Journal of Cardiovascular Pharmacology, 2012, 59: 260-267). In brief, a 2F miniaturized combined conductance catheter-micromanometer (model SPR-819, Millar Instruments) connected to a pressure-conductance unit (MPCU-200, Millar) was advanced retrograde via the carotid artery into the left ventricle. This catheter has a micro-manometer surrounded by 4 platinum electrodes; the two outermost electrodes generate a current of 0.1 mA at a frequency of 20 kHz, which is sensed by the two innermost electrodes. Pressure-Volume (PV) loops were recorded at baseline and during loading by gently occluding the abdominal aorta with a cotton swab. Data were stored and analysed by using Millar conductance data acquisition and analysis software. Finally, the following parameters were measured/calculated from the pressure-volume curves: • Left ventricular end-diastolic pressure; • Left ventricular end-systolic pressure; • Left ventricular relaxation constant Tau; • Left ventricular end-diastolic pressure-volume relation; and • Left ventricular end-systolic pressure-volume relation. Coronary Endothelial Function

Zucker fa/fa rats [2] = assay: Echocardiography, cardiac output in Zucker fa/fa rats; conditions: 150 mg/kg bid, 90 days, vs untreated Zucker fa/fa
Protocol: as §1, §2, §3
(§6) After a short-term treatment (9 days), cardiac function (echocardiography and MRI) and cardiac hemodynamics were assessed (1 h after the last treatment) on all rats. • Second experiment protocol: […]
as §5
Studies were performed on rats after 9 and 90 days of treatment. […] LV diameters were measured by the American Society of Echocardiography leading-edge method from at least 3 consecutive cardiac cycles. […]

Zucker fa/fa rats [3] = assay: Myocardial perfusion by MRI (arterial spin labeling) in Zucker fa/fa rats; conditions: 150 mg/kg bid, vs untreated Zucker fa/fa
Protocol: as §1, §2, §3, §6, §5
The ECG signal was monitored by placing two subcutaneous electrodes on each side of the rat at chest level. […] Upon subtraction of an image acquired without spin labelling, the background signal from static spins is removed and the difference image can be used to quantify perfusion. […]

[4] = tested on: septal coronary artery of Zucker fa/fa rats; assay: Coronary endothelial function: acetylcholine-induced relaxation of septal coronary artery from treated Zucker fa/fa rats; conditions: 150 mg/kg bid, administration for 9 and 90 days, serotonin-precontracted segments
Protocol: as §1, §2
Coronary endothelial function was assessed after 9 or 90 days of treatment, as described previously (Fang Y H et al, Journal of Cardiovascular Pharmacology, 2012, 59: 260-267; Mulder et al., Eur Heart J., 2008, 29:2171-2179). In brief, at the end of the left ventricular function assessment, the heart was removed and immediately placed in cold oxygenated Krebs buffer. A 1.5- to 2-mm-long segment of arteries were carefully dissected and mounted in a small vessel myograph. Normalization procedure was performed after an equilibration period. Segments with an internal diameter<170 μm was excluded to avoid mechanical endothelial injury and unspecific dysfunction. Concentration-response curves to acetylcholine (10^−8 to 3×10^−5 mol/L) were performed in serotonin-precontracted segments (10^−5 mol/L).

Zucker fa/fa rats [5] = assay: Cardiac histology: LV collagen density (Sirius red) in Zucker fa/fa rats; conditions: 150 mg/kg bid, D90, mean ± SEM
Protocol: as §1, §2, §4
At the end of the treatment period, the heart was taken out. After fixation, the left ventricle was cut in 3 sections of identical thickness. The sections of the heart were dehydrated and embedded in paraffin. 3 μm-thick sections were cut from each block and mounted on glass slides. Sections were stained with Sirius red for the determination of collagen. Slides were enlarged 500 times using a microscope connected to an image analysis system, as previously described (Mulder et al., J. Am. Coll. Cardiol., 1997). Collagen density was calculated in the left ventricle as the surface occupied by collagen divided by the surface of the image.

Zucker fa/fa rats [6] = assay: Left ventricular oxidative stress: ROS production in LV homogenates by EPR, Zucker fa/fa rats; conditions: 150 mg/kg bid
Protocol: as §1, §2
Left ventricular reactive oxygen species production level were evaluated in left ventricular homogenates (obtained after 9 or 90 days of treatment) by electron paramagnetic resonance spectroscopy (EPR) using the spin probe 1-hydroxy-3-methoxycarbonyl-2,2,5,5-tetramethylpyrrolidine (CMH, Noxygen, Germany), as previously described (Mulder P, Eur Heart J. 2008; 29:2171-2179). Stock solution of CMH (50 mM) were prepared in Krebs-HEPES buffer (0.1 M NaCl, 5 mM KCl, 2.5 mM CaCl2, 1.2 mM MgSO4, 25 mM NaHCO3, 1 mM KH2PO4, 5.6 mM D(+)-Glucose, 20 mM Na-HEPES, pH 7.4) containing 25 μM deferoxamine and 5 μM diethyldithiocarbamate. […] The oxidation of CMH into the stable 3-methoxycarbonyl-proxyl (CM•), driven mainly by superoxide and peroxynitrite reactions, was recorded using a MiniScope MS-200 X-band spectrometer (Magnettech, Germany). […] Intensity of the spectra was measured from the height of the central line. CM• production was quantified using CP° standard and expressed in μmol of CM• per mg of total proteins.

[7] = 150 mg/kg bid, 90 days, vs untreated Zucker fa/fa

Compound: CC1N=C(N)NC(N(C)C)=N1 (single isomer, unassigned; (+)) [Imeglimin, (+)-2-amino-3,6-dihydro-4-dimethylamino-6-methyl-1,3,5-triazine]
- reduction of the left ventricular end-diastolic pressure-volume relation (Zucker fa/fa rats [1]; 150 mg/kg bid by gavage, 9 days of treatment): about 26%
- reduction of the left ventricular end-diastolic pressure-volume relation (Zucker fa/fa rats [1]; 150 mg/kg bid by gavage, 90 days of treatment): ~58%
- reduction of the left ventricular end-diastolic pressure-volume relation (Zucker fa/fa rats [1]; 150 mg/kg bid, 9 days, vs untreated Zucker fa/fa): already significant
- LV compliance increase (Zucker fa/fa rats [1]; 150 mg/kg bid, 90 days of treatment): about 50%
- LV end-diastolic pressure (FIG. 1A) (Zucker fa/fa rats [1]; [7]): significant reduction
- LV end-diastolic pressure volume relation (FIG. 1C) (Zucker fa/fa rats [1]; [7]): significant reduction
- LV relaxation constant Tau (FIG. 1B) (Zucker fa/fa rats [1]; [7]): significant reduction
- cardiac output (FIG. 2A) (Zucker fa/fa rats [2]): increased
- increase in the myocardial perfusion (Zucker fa/fa rats [3]; 9 days): already significant
- myocardial perfusion (FIG. 2B) (Zucker fa/fa rats [3]; 90 days): increased
- acetylcholine-induced relaxation of septal coronary artery (FIG. 3) [4]: prevented the impairment
- LV collagen density (Zucker fa/fa rats [5]): 2.52 ± 0.20 %
- LV ROS production (Zucker fa/fa rats [6]; D9, mean ± SEM): 27.61 ± 1.29 AU · μg^−1 · h^−1
- LV ROS production (Zucker fa/fa rats [6]; D90, mean ± SEM): 34.02 ± 1.49 AU · μg^−1 · h^−1
